Data from PubChem BioAssay (NCI).
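Exposure lasted 48 hours, with cells grown in 96-well plates and compounds tested at five concentrations. TGI denotes the concentration required for complete inhibition of growth.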

Columns and labels:
Test in all cases: NCI tumour cell line growth inhibition, 48 h
CAKI-1 renal = tested on: CAKI-1 renal
SNB-75 CNS = tested on: SNB-75 CNS
UACC-62 melanoma = tested on: UACC-62 melanoma
MDA-MB-231 breast = tested on: MDA-MB-231 breast
HL-60(TB) leukemia = tested on: HL-60(TB) leukemia
COLO 205 colon = tested on: COLO 205 colon
SK-OV-3 ovarian = tested on: SK-OV-3 ovarian
786-0 renal = tested on: 786-0 renal
HCT-15 colon = tested on: HCT-15 colon
M14 melanoma = tested on: M14 melanoma
HT29 colon = tested on: HT29 colon
SK-MEL-2 melanoma = tested on: SK-MEL-2 melanoma
A549 NSCLC = tested on: A549 NSCLC
BT-549 breast = tested on: BT-549 breast
RPMI-8226 leukemia = tested on: RPMI-8226 leukemia
LOX IMVI melanoma = tested on: LOX IMVI melanoma
NCI-H23 lung = tested on: NCI-H23 lung
SN12C renal = tested on: SN12C renal
SR leukemia = tested on: SR leukemia

SMILES	TGI (CAKI-1 renal)	TGI (SNB-75 CNS)	TGI (UACC-62 melanoma)	TGI (MDA-MB-231 breast)	TGI (HL-60(TB) leukemia)	TGI (COLO 205 colon)	TGI (SK-OV-3 ovarian)	TGI (786-0 renal)	TGI (HCT-15 colon)	TGI (M14 melanoma)	TGI (HT29 colon)	TGI (SK-MEL-2 melanoma)	TGI (A549 NSCLC)	TGI (BT-549 breast)	TGI (RPMI-8226 leukemia)	TGI (LOX IMVI melanoma)	TGI (NCI-H23 lung)	TGI (SN12C renal)	TGI (SR leukemia)
CC(=O)Nc1nc(C#N)[nH]c1C#N	> 100 µM	> 100 µM	> 100 µM	> 100 µM	> 100 µM	> 100 µM	> 100 µM	> 100 µM	> 100 µM	> 100 µM	> 100 µM	> 100 µM	> 100 µM	> 100 µM	> 100 µM	> 100 µM	> 100 µM	> 100 µM	–
COc1cc(NS(C)(=O)=O)ccc1Nc1cc(C)[nH]c2ccc3nccc3c12	> 100 µM	–	> 100 µM	> 100 µM	> 100 µM	> 100 µM	–	> 100 µM	> 100 µM	> 100 µM	> 100 µM	> 100 µM	> 100 µM	> 100 µM	> 100 µM	> 100 µM	> 100 µM	> 100 µM	–
CC1=NN(c2cccc(Cl)c2)C2(SCC(=O)N2c2nc3ccccc3s2)/C1=C\c1ccccc1O (stereo not drawn)	57.5 µM	–	–	67.9 µM	52.1 µM	–	51.3 µM	32.3 µM	34.1 µM	55.4 µM	67.4 µM	44.2 µM	–	–	40.3 µM	> 100 µM	41.3 µM	–	37.5 µM
NS(=O)(=O)c1cc2c(cc1Cl)NC(CCC(=O)O)=NS2(=O)=O	> 100 µM	> 100 µM	> 100 µM	> 100 µM	–	> 100 µM	> 100 µM	> 100 µM	> 100 µM	> 100 µM	> 100 µM	> 100 µM	> 100 µM	> 100 µM	> 100 µM	> 100 µM	> 100 µM	> 100 µM	–
Cc1nc(N)c(N2CCN([N+](=O)[O-])CC2)c(=O)[nH]1	–	> 100 µM	–	> 100 µM	> 100 µM	> 100 µM	–	> 100 µM	> 100 µM	> 100 µM	> 100 µM	> 100 µM	> 100 µM	> 100 µM	> 100 µM	> 100 µM	> 100 µM	> 100 µM	> 100 µM
O=C(Nc1nccs1)c1c(O)nc2sccn2c1=O	> 10 µM	> 10 µM	> 10 µM	> 10 µM	> 10 µM	> 10 µM	> 10 µM	–	> 10 µM	> 10 µM	> 10 µM	> 10 µM	> 10 µM	–	> 10 µM	> 10 µM	> 10 µM	> 10 µM	> 10 µM
CCN(CC)/C(SCc1ccccc1)=C(\C(Cl)=C(Cl)Cl)[N+](=O)[O-]	73.5 µM	–	18.1 µM	49.7 µM	38.9 µM	38.9 µM	> 100 µM	30.2 µM	71.7 µM	29.3 µM	81.7 µM	45.5 µM	38.1 µM	–	65.6 µM	32.7 µM	49.6 µM	42.4 µM	73.6 µM
CCCC(=O)OC1CC(n2cc(F)c(=O)[nH]c2=O)OC1COP(=O)(OCC(Cl)(Cl)Cl)OCC(Cl)(Cl)Cl (stereo not drawn)	> 31.6 µM	76.6 µM	> 100 µM	> 100 µM	40.4 µM	59 µM	> 31.6 µM	> 100 µM	> 100 µM	> 31.6 µM	41.3 µM	> 100 µM	> 94.6 µM	–	86.4 µM	> 69.6 µM	> 100 µM	> 100 µM	99.4 µM
CCOC(=O)c1ccc(NCC#CCN2CCOCC2)cc1	–	–	> 100 µM	> 100 µM	> 100 µM	> 100 µM	> 100 µM	> 100 µM	> 100 µM	> 100 µM	> 100 µM	> 100 µM	> 100 µM	> 100 µM	> 100 µM	> 100 µM	> 100 µM	> 100 µM	> 100 µM
CCOC(=O)c1cn2c(nc1=O)N[C@H]1CCCC[C@@H]12	> 100 µM	> 100 µM	> 100 µM	> 100 µM	> 100 µM	> 100 µM	> 100 µM	> 100 µM	> 100 µM	> 100 µM	> 100 µM	> 100 µM	> 100 µM	> 100 µM	> 100 µM	> 100 µM	> 100 µM	> 100 µM	–
c1c[nH]c(-c2ccc(-c3ccc[nH]3)c3nsnc23)c1	> 100 µM	> 85.8 µM	> 100 µM	> 84.8 µM	> 100 µM	> 65.9 µM	> 100 µM	> 67.6 µM	> 76.8 µM	> 63 µM	> 37.8 µM	> 100 µM	> 70 µM	> 100 µM	> 52.6 µM	> 100 µM	79.6 µM	> 100 µM	–
COc1ccc(-c2nc(SCC(=O)N/N=C/c3ccc(N(C)C)cc3)[nH]c2-c2ccc(OC)cc2)cc1	> 100 µM	> 100 µM	> 100 µM	> 100 µM	> 100 µM	24.5 µM	> 100 µM	> 100 µM	> 100 µM	> 100 µM	> 100 µM	> 100 µM	> 100 µM	> 100 µM	–	> 100 µM	> 100 µM	> 100 µM	–
CN(C)C1(N(C)C)Oc2c(c(=O)n(C)c(=O)n2C)C(c2ccc(Br)cc2)C1(F)F (stereo not drawn)	> 100 µM	> 100 µM	> 100 µM	> 100 µM	–	> 100 µM	> 100 µM	> 100 µM	> 100 µM	> 100 µM	–	> 100 µM	> 100 µM	> 100 µM	> 100 µM	> 100 µM	> 100 µM	–	–
COc1cc(/C=C/C(=O)CC(=O)/C=C/c2ccc(OC(=O)CCCCC3CCSS3)c(OC)c2)ccc1OC(=O)CCCCC1CCSS1 (stereo not drawn)	–	> 100 µM	> 100 µM	> 100 µM	> 100 µM	> 100 µM	> 100 µM	> 100 µM	> 100 µM	> 100 µM	> 100 µM	> 100 µM	> 100 µM	> 100 µM	> 100 µM	> 100 µM	> 100 µM	> 100 µM	–
Cc1cccc2c1CC1(C2)Cc2c(C)cccc2C1=O (stereo not drawn)	48.6 µM	70.7 µM	–	53.7 µM	52.6 µM	29.7 µM	> 100 µM	70.2 µM	> 100 µM	77.7 µM	97.2 µM	38.3 µM	> 100 µM	–	43 µM	38.7 µM	> 100 µM	74.2 µM	37.4 µM
CCOC(=O)Cn1c(=O)c2nc(SC)sc2n(-c2ccccc2)c1=O	–	> 100 µM	> 100 µM	> 100 µM	> 100 µM	> 100 µM	–	> 100 µM	> 100 µM	> 100 µM	> 100 µM	> 100 µM	> 100 µM	> 100 µM	> 100 µM	–	> 100 µM	> 100 µM	> 100 µM
CCOP(=O)(OCC)C(c1ccc(F)cc1)N(C(=O)NC(F)(F)F)c1ccc(OC)cc1 (stereo not drawn)	> 100 µM	> 100 µM	–	> 100 µM	> 100 µM	> 100 µM	–	> 100 µM	> 100 µM	> 100 µM	> 100 µM	–	> 100 µM	–	> 100 µM	> 100 µM	> 100 µM	> 100 µM	> 100 µM
CC1=C[C@@H]2Cc3nc4cc(Cl)ccc4c(N)c3[C@H](C1)C2	17.4 µM	17.9 µM	31.5 µM	28.7 µM	35.3 µM	2.92 µM	24.3 µM	19 µM	24.3 µM	18.1 µM	13.2 µM	29.7 µM	34.9 µM	31.7 µM	13.4 µM	22.3 µM	22.3 µM	29.6 µM	–
CS(=O)(=O)OCC(CCl)(CCl)CCl	–	> 100 µM	–	> 100 µM	–	> 100 µM	> 100 µM	–	> 100 µM	> 100 µM	> 100 µM	–	> 100 µM	–	–	> 100 µM	> 100 µM	> 100 µM	> 100 µM
N#Cc1c(-c2ccccc2)/c(=C\Nc2ccc(F)cc2)c(=O)n2c1nc1ccccc12	39.9 µM	> 100 µM	–	> 100 µM	–	> 100 µM	> 100 µM	68.3 µM	> 100 µM	40.4 µM	–	> 100 µM	> 100 µM	> 100 µM	38.5 µM	> 100 µM	> 100 µM	82.9 µM	–
O=C(CC(C(=O)c1ccsc1)c1ccc2c(c1)OCO2)c1ccccc1 (stereo not drawn)	> 100 µM	> 100 µM	> 100 µM	–	> 100 µM	> 100 µM	> 100 µM	> 100 µM	> 100 µM	> 100 µM	> 100 µM	–	50.7 µM	–	> 100 µM	> 100 µM	63.1 µM	> 100 µM	> 100 µM
CCN(CCCN(CC)C(=O)Nc1c(C)cccc1C)C(=O)Nc1c(C)cccc1C	> 100 µM	> 100 µM	> 100 µM	> 100 µM	–	> 100 µM	> 100 µM	> 100 µM	> 100 µM	> 100 µM	> 100 µM	> 100 µM	> 100 µM	> 100 µM	> 100 µM	> 100 µM	> 100 µM	> 100 µM	–
O=c1[nH]c(=O)n(C2OC(CO)C(O)C2O)c2nc(-c3ccc(-c4ccccc4)cc3)cnc12 (stereo not drawn)	> 100 µM	> 100 µM	> 100 µM	> 100 µM	–	> 100 µM	> 100 µM	> 100 µM	> 100 µM	> 100 µM	> 100 µM	> 100 µM	> 100 µM	> 100 µM	> 100 µM	> 100 µM	> 100 µM	> 100 µM	–
COc1ccc2c(C)cc(=O)oc2c1OC	–	> 100 µM	> 100 µM	> 100 µM	–	> 100 µM	> 100 µM	> 100 µM	> 100 µM	> 100 µM	> 100 µM	> 100 µM	> 100 µM	–	> 100 µM	> 100 µM	> 100 µM	> 100 µM	> 100 µM
O=[N+]([O-])C(/C=C(\Cl)n1nnc2ccccc21)=C(/Cl)n1nnc2ccccc21	> 100 µM	–	> 100 µM	> 100 µM	–	> 100 µM	> 100 µM	> 100 µM	> 100 µM	> 100 µM	> 100 µM	> 100 µM	> 100 µM	–	> 100 µM	> 100 µM	> 100 µM	> 100 µM	> 100 µM
CN(C)c1ccc(S(=O)Nc2ccccc2)cc1 (stereo not drawn)	–	–	81.6 µM	> 100 µM	> 100 µM	63.1 µM	–	> 100 µM	> 100 µM	> 100 µM	> 100 µM	89.1 µM	> 100 µM	28.9 µM	> 100 µM	> 100 µM	> 100 µM	> 100 µM	> 100 µM
COc1cc(C2c3cc4c(cc3OC(NN)C2C)OCO4)cc(OC)c1OC (stereo not drawn)	> 90.6 µM	> 75.2 µM	> 100 µM	> 91.1 µM	0.977 µM	13.9 µM	> 100 µM	> 100 µM	> 37.4 µM	> 100 µM	–	> 100 µM	> 100 µM	> 100 µM	67.7 µM	> 100 µM	> 100 µM	> 100 µM	–
O=C(O)CCC(=O)OC1N=C(c2ccccc2Cl)c2cc([N+](=O)[O-])ccc2NC1=O (stereo not drawn)	> 100 µM	> 100 µM	> 100 µM	> 100 µM	> 100 µM	–	> 100 µM	> 100 µM	> 100 µM	> 100 µM	> 100 µM	> 100 µM	> 100 µM	> 100 µM	–	> 100 µM	> 100 µM	> 100 µM	–
